Data: article PMC8615975, “Design of α/β-Hybrid Peptide Ligands of α4β1 Integrin Equipped with a Linkable Side Chain for Chemoselective Biofunctionalization of Microstructured Materials” (Biomedicines, 2021)
*1 amine or outer side, *2 acyl side, *3 side chain or, on linkers, in order; H or OH if unused. Where a SMILES comes first, the peptide text is derived from it. [ ]: non-standard residue; d: D form. The star is where a group is joined. X1 = O=C(Cc1ccc(N[*:1])cc1)[*:2]; NH(2-Me-phenyl) = Cc1ccccc1N*; CO = O=C([*:1])[*:2]

Assays:
[1] = biological target: T1, α4β1 integrin (Homo sapiens, UniProt P05556+P13612); assay: Inhibition of α4β1 integrin-mediated Jurkat cell adhesion to FN; format: cell-based; details: for ability to modulate α4β1 integrin-mediated cell adhesion (in words): Jurkat cell adhesion to FN; for IC50: Jurkat cell adhesion to plates coated with FN (10 μg/mL), mean ± SD, three experiments in quadruplicate
T1 construct: Jurkat E6.1 cells (expressing α4β1) were maintained as a stationary suspension culture; host or cells: Jurkat E6.1
T1 sequence (P13612 34-1032): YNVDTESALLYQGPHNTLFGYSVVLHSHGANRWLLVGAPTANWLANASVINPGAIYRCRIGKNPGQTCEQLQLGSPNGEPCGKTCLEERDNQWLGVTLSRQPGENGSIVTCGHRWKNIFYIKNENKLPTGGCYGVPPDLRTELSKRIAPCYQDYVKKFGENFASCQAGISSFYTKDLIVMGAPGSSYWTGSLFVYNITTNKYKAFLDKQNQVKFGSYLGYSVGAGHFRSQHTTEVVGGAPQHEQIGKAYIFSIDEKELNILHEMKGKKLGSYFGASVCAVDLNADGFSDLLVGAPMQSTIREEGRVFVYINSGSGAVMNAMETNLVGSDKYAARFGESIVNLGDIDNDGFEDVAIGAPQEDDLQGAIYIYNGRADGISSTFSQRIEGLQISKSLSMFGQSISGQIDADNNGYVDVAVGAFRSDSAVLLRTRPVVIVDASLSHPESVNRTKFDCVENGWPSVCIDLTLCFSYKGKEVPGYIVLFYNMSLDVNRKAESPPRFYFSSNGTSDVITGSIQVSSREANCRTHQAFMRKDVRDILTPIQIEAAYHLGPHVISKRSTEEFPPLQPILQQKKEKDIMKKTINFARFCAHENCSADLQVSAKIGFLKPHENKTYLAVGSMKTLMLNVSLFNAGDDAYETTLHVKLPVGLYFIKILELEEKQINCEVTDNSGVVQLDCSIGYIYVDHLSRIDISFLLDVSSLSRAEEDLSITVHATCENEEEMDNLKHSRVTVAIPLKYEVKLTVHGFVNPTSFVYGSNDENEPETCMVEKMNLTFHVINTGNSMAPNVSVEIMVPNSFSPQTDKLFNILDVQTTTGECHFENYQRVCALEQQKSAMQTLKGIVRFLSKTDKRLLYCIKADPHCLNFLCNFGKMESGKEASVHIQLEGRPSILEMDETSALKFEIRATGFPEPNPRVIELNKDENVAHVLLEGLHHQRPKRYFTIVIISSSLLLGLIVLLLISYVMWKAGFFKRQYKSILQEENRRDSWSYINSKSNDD
T1 sequence (P05556 21-798): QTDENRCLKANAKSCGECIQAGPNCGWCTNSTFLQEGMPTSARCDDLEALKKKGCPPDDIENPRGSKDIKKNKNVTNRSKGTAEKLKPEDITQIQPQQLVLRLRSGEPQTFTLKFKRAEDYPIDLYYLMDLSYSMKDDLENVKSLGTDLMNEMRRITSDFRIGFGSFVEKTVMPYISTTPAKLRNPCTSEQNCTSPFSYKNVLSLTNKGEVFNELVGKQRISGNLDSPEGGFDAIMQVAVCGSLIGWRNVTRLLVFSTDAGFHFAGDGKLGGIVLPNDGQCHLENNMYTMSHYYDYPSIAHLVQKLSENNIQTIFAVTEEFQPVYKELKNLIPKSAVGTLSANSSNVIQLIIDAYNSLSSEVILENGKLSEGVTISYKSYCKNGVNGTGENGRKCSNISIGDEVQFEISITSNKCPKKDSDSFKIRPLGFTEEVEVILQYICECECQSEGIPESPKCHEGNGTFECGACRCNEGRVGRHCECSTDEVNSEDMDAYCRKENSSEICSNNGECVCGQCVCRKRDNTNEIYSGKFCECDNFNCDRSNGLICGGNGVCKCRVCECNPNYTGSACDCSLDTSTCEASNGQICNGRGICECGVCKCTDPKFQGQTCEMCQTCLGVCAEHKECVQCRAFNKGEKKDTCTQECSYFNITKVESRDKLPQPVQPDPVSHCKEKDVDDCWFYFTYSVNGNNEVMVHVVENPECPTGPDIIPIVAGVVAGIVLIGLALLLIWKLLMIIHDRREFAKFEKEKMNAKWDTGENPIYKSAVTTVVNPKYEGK
Description: All cell lines were purchased from the ATCC (Rockville, MD, USA). Jurkat E6.1 cells (expressing α4β1) were maintained as a stationary suspension culture in RPMI-1640 (Life Technologies, Carlsbad, CA, USA) supplemented with 2 mM glutamine and 10% FBS (fetal bovine serum). HEK293 cells were routinely cultured in EMEM (Lonza, Basel, Switzerland) enriched with 10% FBS, L-glutamine and nonessential amino acids. Cells were kept at 37 °C under a 5% CO2 humidified atmosphere.
The adhesion assays were performed as previously described. Briefly, black 96-well plates (Corning Costar, Celbio, Milan, Italy) were coated with FN (10 μg/mL). Cells were counted, stained with CellTracker green CMFDA (12.5 μM, 30 min at 37 °C, Life Technologies), and after three washes with 1% BSA (bovine serum albumin) in HBSS (Life Technologies) were preincubated with increasing concentrations of the new peptide ligands (10^−10–10^−4 M) or with the vehicle (methanol) for 30 min at 37 °C. Afterwards, cells were plated (500,000/well) on coated wells and incubated for 30 min at 37 °C. After three washes, adhered cells were lysed with 0.5% Triton X-100 in PBS (30 min at 4 °C) and fluorescence was measured (Ex485 nm/Em535 nm) in an EnSpire Multimode Plate Reader (PerkinElmer, Waltham, MA, USA).
The number of adherent cells was obtained by comparison with a standard curve prepared in the same plate using diverse concentrations of cells. Experiments were carried out in quadruplicate and repeated at least three times. Data analysis and IC50 values were calculated using GraphPad Prism 6.0 (GraphPad Software, San Diego, CA, USA).

[2] = Enzymatic stability in mouse serum; format: in vitro ADME; details: 37 °C, HPLC; for amount of intact peptide: after 3 h
Description: Incubations were carried out at 37 °C. Aliquots of 20 µL were sampled over 180 min from the mixtures and the samples were diluted with 90 µL of glacial ACN for precipitating proteins. The mixtures were diluted with 90 µL of 0.5% AcOH and centrifuged (13,000× g, 15 min). The supernatants were collected and the amount of intact peptides was determined by RP HPLC. The experiments were performed in triplicate and repeated three times.

[3] = set-up: method as in PMID 17523052, PMID 11682211; details: heparinized blood, plasma and rat liver, lung and intestinal homogenates; cited from earlier work
[4] = system: isolated α4β1 integrin; set-up: method as in PMID 30051467; details: read-out: IC50, affinity for the isolated α4β1 integrin; cited from earlier work
[5] = system: α4β1 integrin; set-up: method as in PMID 30051467; details: VCAM-1; read-out: IC50, adhesion of α4β1 integrin-expressing cells to VCAM-1; cited from earlier work
[6] = set-up: method as in PMID 30051467; details: incubation in mouse serum; cited from earlier work

| Compound | IC50 [1] [nM] | ability to modulate α4β1 integrin-mediated cell adhesion (in words) [1] | other results |
| --- | --- | --- | --- |
| Cc1ccccc1NC(=O)Nc1ccc(CC(=O)NC[C@H](C)C(=O)NCC(=O)O)cc1 [Compound 9, MPUPA-β^2-homoAla-Gly-OH] | > 5000 | not able to modulate α4β1 integrin-mediated cell adhesion to a significant extent | – |
| Cc1ccccc1NC(=O)Nc1ccc(CC(=O)N[C@@H](C)CC(=O)NCC(=O)O)cc1 [Compound 7, MPUPA-β^3-homoAla-Gly-OH] | 4060 ± 780 | – | – |
| Cc1ccccc1NC(=O)Nc1ccc(CC(=O)N[C@H](C)CC(=O)NCC(=O)O)cc1 [Compound 8, MPUPA-β^3-homoAla-Gly-OH] | > 5000 | – | – |
| CC(=O)N[C@H](CNC(=O)Cc1ccc(NC(=O)Nc2ccccc2C)cc1)C(=O)NCC(=O)O [Compound 14, MPUPA-Dap(Ac)-Gly-OH] | > 5000 | inactive | – |
| Cc1ccccc1NC(=O)Nc1ccc(CC(=O)N[C@@H](CC(C)C)C(=O)N[C@@H](CC(=O)O)C(=O)N[C@H](C(=O)N2CCC[C@H]2C(=O)O)C(C)C)cc1 [BIO1211, MPUPA-Leu-Asp-Val-Pro-OH, reference compound] ({NH(2-Me-phenyl)-CO}-[X1]LDVP-OH) | – | – | initial amount still present ([2]; after 1 h): about 10%; stability in physiological conditions (in words) [3]: poor stability |
| Cc1ccccc1NC(=O)Nc1ccc(CC(=O)N2CC[C@H](C(=O)NCC(=O)O)C2)cc1 [Compound 6] | – | – | IC50 [4]: 8.3 nM; IC50 [5]: 5.04 nM; enzymatic stability (in words) [6]: good enzymatic stability |

Now from value to molecule, other results behind:

| IC50 [1] [nM] | Compound | ability to modulate α4β1 integrin-mediated cell adhesion (in words) [1] | other results |
| --- | --- | --- | --- |
| 9.8 ± 2.1 | CCCNC(=O)[C@@H](CC(=O)NCC(=O)O)NC(=O)Cc1ccc(NC(=O)Nc2ccccc2C)cc1 [Compound 12, MPUPA-(R)-isoAsp(NHPr)-Gly-OH] | – | amount of intact peptide [2]: around 80% |
| 236 ± 47 | CC(=O)N[C@@H](CNC(=O)Cc1ccc(NC(=O)Nc2ccccc2C)cc1)C(=O)NCC(=O)O [Compound 13, MPUPA-(S)-Dap(Ac)-Gly-OH] | submicromolar range | amount of intact peptide [2]: ~91% |
| > 5000 | Cc1ccccc1NC(=O)Nc1ccc(CC(=O)NC[C@@H](C)C(=O)NCC(=O)O)cc1 [Compound 10, MPUPA-β^2-homoAla-Gly-OH] | not able to modulate α4β1 integrin-mediated cell adhesion to a significant extent | – |
| > 5000 | CCCNC(=O)[C@H](CC(=O)NCC(=O)O)NC(=O)Cc1ccc(NC(=O)Nc2ccccc2C)cc1 [Compound 11, MPUPA-isoAsp(NHPr)-Gly-OH] | – | – |
